In patent publication US8952024B2, “Herbicidal pyrimidone derivatives” (E I du Pont de Nemours and Company, priority 2009, dated 2015):

Key:
Format in all cases: in vivo
[1] = test system: giant foxtail (Setaria faberii); experiment: Test B pre-/postemergence plant response; settings: for Foxtail, Giant plant response rating (0 to 100 scale): 0 is no effect, 13 to 15 days
Procedure, shortened: (§1)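 Visual injury, 0–100 scale (100 = complete control), rated against controls after 13 to 15 days in greenhouse. Pre-emergence: seeds in loam/sand soil, treated at planting. Post-emergence: 1- to 4-leaf plants (2 to 18 cm) in peat/vermiculite medium. Compounds formulated in non-phytotoxic solvent with surfactant.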

[2] = test system: pigweed (Amaranthus retroflexus); experiment: Test B pre-/postemergence plant response; settings: for Pigweed plant response rating (0 to 100 scale): 0 is no effect, 13 to 15 days
Procedure, shortened: as §1

[3] = test system: wheat (Triticum aestivum); experiment: Test B pre-/postemergence plant response; settings: for Wheat plant response rating (0 to 100 scale): 0 is no effect, 13 to 15 days
Procedure, shortened: as §1

[4] = test system: green foxtail (Setaria viridis); experiment: Test B pre-/postemergence plant response; settings: for Foxtail, Green plant response rating (0 to 100 scale): 0 is no effect, 13 to 15 days
Procedure, shortened: as §1

[5] = test system: downy bromegrass (Bromus tectorum); experiment: Test B pre-/postemergence plant response; settings: for Bromegrass, Downy plant response rating (0 to 100 scale): 0 is no effect, 13 to 15 days
Procedure, shortened: as §1

[6] = test system: cocklebur (Xanthium strumarium); experiment: Test B pre-/postemergence plant response; settings: for Cocklebur plant response rating (0 to 100 scale): 0 is no effect, 13 to 15 days
Procedure, shortened: as §1

kochia (Kochia scoparia) = experiment: Test B pre-/postemergence plant response; settings: for Kochia plant response rating (0 to 100 scale): 0 is no effect, 13 to 15 days
Procedure, shortened: as §1

[7] = test system: morningglory (Ipomoea coccinea); experiment: Test B pre-/postemergence plant response; settings: for Morningglory plant response rating (0 to 100 scale): 0 is no effect, 13 to 15 days
Procedure, shortened: as §1

[8] = test system: goosegrass (Eleusine indica); experiment: Test B pre-/postemergence plant response; settings: for Goosegrass plant response rating (0 to 100 scale): 0 is no effect, 13 to 15 days
Procedure, shortened: as §1

[9] = test system: morningglory (Ipomoea spp.); experiment: Test A pre-/postemergence plant response
Procedure, shortened: (§2)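 Pre: directed soil spray on seeded loam/sand blend. Post: same formulation (non-phytotoxic solvent + surfactant) on 2–10 cm plants, 1–2 leaf stage. Greenhouse ~10 d; visual injury score 0–100 vs untreated.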

[10] = test system: wheat (Triticum aestivum); experiment: Test A pre-/postemergence plant response
Procedure, shortened: as §2

[11] = test system: large crabgrass (Digitaria sanguinalis); experiment: Test A pre-/postemergence plant response
Procedure, shortened: as §2

[12] = test system: velvetleaf (Abutilon theophrasti); experiment: Test A pre-/postemergence plant response
Procedure, shortened: as §2

[13] = 31 g ai/ha, postemergence, scale 0 to 100, 0 is no effect, 100 is complete control
[14] = 62 g ai/ha, postemergence, 100 is complete control
[15] = Postemergence, 125 g ai/ha, visual rating after 13 to 15 days, scale 0 (no effect) to 100 (complete control)
[16] = Postemergence, 250 g ai/ha, scale 0 to 100 (0 no effect, 100 complete control)
[17] = Preemergence, 31 g ai/ha, scale 0 to 100 (0 no effect, 100 complete control)
[18] = Preemergence, 62 g ai/ha, scale 0 to 100, 0 no effect, 100 complete control
[19] = Preemergence, 125 g ai/ha, scale 0 to 100, 0 no effect, 100 complete control
[20] = Preemergence, 250 g ai/ha, 0 to 100 scale
[21] = Postemergence, 125 g ai/ha, 0 to 100 scale where 0 is no effect and 100 is complete control
[22] = Postemergence, 500 g ai/ha, 0 to 100 scale, 0 = no effect, 100 = complete control, approx. ten days
[23] = Preemergence, 125 g ai/ha, 0 to 100 scale, 0 = no effect, 100 = complete control
[24] = Preemergence, 500 g ai/ha, visual injury, 0 to 100 scale (0 no effect, 100 complete control), approx. ten days

Structure (SMILES): CCCCn1c(CCC)ncc(C(=O)C2=C(O)CCCC2=O)c1=O [Compound 75]
- Plant response rating, Foxtail, Giant [1, 13]: 75
- Foxtail, Giant plant response rating (0 to 100 scale) [1, 14]: 80
- Plant response rating, Foxtail, Giant [1, 15]: 85
- Plant response rating, Foxtail, Giant [1, 16]: 95
- Plant response rating, Foxtail, Giant [1, 17]: 0
- Plant response rating, Foxtail, Giant [1, 18]: 25
- Plant response rating, Foxtail, Giant [1, 19]: 80
- Foxtail, Giant plant response rating [1, 20]: 80
- Plant response rating, Pigweed [2, 13]: 100
- Pigweed plant response rating (0 to 100 scale) [2, 14]: 100
- Plant response rating, Pigweed [2, 15]: 100
- Plant response rating, Pigweed [2, 16]: 100
- Plant response rating, Pigweed [2, 17]: 98
- Plant response rating, Pigweed [2, 18]: 100
- Plant response rating, Pigweed [2, 19]: 100
- Pigweed plant response rating [2, 20]: 100
- Plant response rating, Wheat [3, 13]: 0
- Wheat plant response rating (0 to 100 scale) [3, 14]: 0
- Plant response rating, Wheat [3, 15]: 10
- Plant response rating, Wheat [3, 16]: 25
- Plant response rating, Wheat [3, 17]: 0
- Plant response rating, Wheat [3, 18]: 0
- Plant response rating, Wheat [3, 19]: 0
- Wheat plant response rating [3, 20]: 0
- Plant response rating, Foxtail, Green [4, 13]: 65
- Foxtail, Green plant response rating (0 to 100 scale) [4, 14]: 85
- Plant response rating, Foxtail, Green [4, 15]: 90
- Plant response rating, Foxtail, Green [4, 16]: 90
- Plant response rating, Foxtail, Green [4, 17]: 5
- Plant response rating, Foxtail, Green [4, 18]: 50
- Plant response rating, Foxtail, Green [4, 19]: 50
- Foxtail, Green plant response rating [4, 20]: 98
- Plant response rating, Bromegrass, Downy [5, 13]: 5
- Bromegrass, Downy plant response rating (0 to 100 scale) [5, 14]: 20
- Plant response rating, Bromegrass, Downy [5, 15]: 35
- Plant response rating, Bromegrass, Downy [5, 16]: 50
- Plant response rating, Bromegrass, Downy [5, 17]: 0
- Plant response rating, Bromegrass, Downy [5, 18]: 0
- Plant response rating, Bromegrass, Downy [5, 19]: 0
- Bromegrass, Downy plant response rating [5, 20]: 0
- Plant response rating, Cocklebur [6, 13]: 40
- Cocklebur plant response rating (0 to 100 scale) [6, 14]: 80
- Plant response rating, Cocklebur [6, 15]: 95
- Plant response rating, Cocklebur [6, 16]: 95
- Plant response rating, Cocklebur [6, 17]: 10
- Plant response rating, Cocklebur [6, 18]: 20
- Plant response rating, Cocklebur [6, 19]: 75
- Cocklebur plant response rating [6, 20]: 90
- Plant response rating, Kochia (kochia (Kochia scoparia); [13]): 75
- Kochia plant response rating (0 to 100 scale) (kochia (Kochia scoparia); [14]): 95
- Plant response rating, Kochia (kochia (Kochia scoparia); [15]): 100
- Plant response rating, Kochia (kochia (Kochia scoparia); [16]): 100
- Plant response rating, Kochia (kochia (Kochia scoparia); [17]): 80
- Plant response rating, Kochia (kochia (Kochia scoparia); [18]): 90
- Plant response rating, Kochia (kochia (Kochia scoparia); [19]): 90
- Kochia plant response rating (kochia (Kochia scoparia); [20]): 95
- Plant response rating, Morningglory [7, 13]: 20
- Morningglory plant response rating (0 to 100 scale) [7, 14]: 90
- Plant response rating, Morningglory [7, 15]: 95
- Plant response rating, Morningglory [7, 16]: 95
- Plant response rating, Morningglory [7, 17]: 0
- Plant response rating, Morningglory [7, 18]: 60
- Plant response rating, Morningglory [7, 19]: 75
- Morningglory plant response rating [7, 20]: 90
- Plant response rating, Goosegrass [8, 13]: 75
- Goosegrass plant response rating (0 to 100 scale) [8, 14]: 80
- Plant response rating, Goosegrass [8, 15]: 95
- Plant response rating, Goosegrass [8, 16]: 98
- Plant response rating, Goosegrass [8, 17]: 95
- Plant response rating, Goosegrass [8, 18]: 100
- Plant response rating, Goosegrass [8, 19]: 100
- Goosegrass plant response rating [8, 20]: 100
- Plant response rating, Morningglory [9, 21]: 90
- Plant response rating, Morningglory [9, 22]: 100
- Plant response rating, Morningglory [9, 23]: 60
- Plant response rating, Morningglory [9, 24]: 90
- Plant response rating, Wheat [10, 21]: 0
- Plant response rating, Wheat [10, 22]: 50
- Plant response rating, Wheat [10, 23]: 0
- Plant response rating, Wheat [10, 24]: 0
- Plant response rating, Crabgrass, Large [11, 21]: 90
- Plant response rating, Crabgrass, Large [11, 22]: 90
- Plant response rating, Crabgrass, Large [11, 23]: 90
- Plant response rating, Crabgrass, Large [11, 24]: 100
- Plant response rating, Velvetleaf [12, 21]: 100
- Plant response rating, Velvetleaf [12, 22]: 100
- Plant response rating, Velvetleaf [12, 23]: 90
- Plant response rating, Velvetleaf [12, 24]: 100

Structure (SMILES): CCCc1ncc(C(=O)C2=C(O)CCCC2=O)c(=O)n1-c1cccc(C)c1 [Compound 79]
- Plant response rating, Foxtail, Giant [1, 13]: 70
- Foxtail, Giant plant response rating (0 to 100 scale) [1, 14]: 75
- Plant response rating, Foxtail, Giant [1, 15]: 95
- Plant response rating, Foxtail, Giant [1, 16]: 95
- Plant response rating, Pigweed [2, 13]: 100
- Pigweed plant response rating (0 to 100 scale) [2, 14]: 100
- Plant response rating, Pigweed [2, 15]: 100
- Plant response rating, Pigweed [2, 16]: 100
- Plant response rating, Wheat [3, 13]: 10
- Wheat plant response rating (0 to 100 scale) [3, 14]: 25
- Plant response rating, Wheat [3, 15]: 35
- Plant response rating, Wheat [3, 16]: 40
- Plant response rating, Foxtail, Green [4, 13]: 60
- Foxtail, Green plant response rating (0 to 100 scale) [4, 14]: 60
- Plant response rating, Foxtail, Green [4, 15]: 80
- Plant response rating, Foxtail, Green [4, 16]: 98
- Plant response rating, Bromegrass, Downy [5, 13]: 5
- Bromegrass, Downy plant response rating (0 to 100 scale) [5, 14]: 10
- Plant response rating, Bromegrass, Downy [5, 15]: 30
- Plant response rating, Bromegrass, Downy [5, 16]: 65
- Plant response rating, Cocklebur [6, 13]: 95
- Cocklebur plant response rating (0 to 100 scale) [6, 14]: 98
- Plant response rating, Cocklebur [6, 15]: 98
- Plant response rating, Cocklebur [6, 16]: 98
- Plant response rating, Kochia (kochia (Kochia scoparia); [13]): 75
- Kochia plant response rating (0 to 100 scale) (kochia (Kochia scoparia); [14]): 75
- Plant response rating, Kochia (kochia (Kochia scoparia); [15]): 75
- Plant response rating, Kochia (kochia (Kochia scoparia); [16]): 80
- Plant response rating, Morningglory [7, 13]: 80
- Morningglory plant response rating (0 to 100 scale) [7, 14]: 95
- Plant response rating, Morningglory [7, 15]: 100
- Plant response rating, Morningglory [7, 16]: 100
- Plant response rating, Goosegrass [8, 13]: 45
- Goosegrass plant response rating (0 to 100 scale) [8, 14]: 65
- Plant response rating, Goosegrass [8, 15]: 70
- Plant response rating, Goosegrass [8, 16]: 80
- Plant response rating, Morningglory [9, 21]: 100
- Plant response rating, Morningglory [9, 22]: 100
- Plant response rating, Morningglory [9, 23]: 0
- Plant response rating, Morningglory [9, 24]: 50
- Plant response rating, Wheat [10, 21]: 0
- Plant response rating, Wheat [10, 22]: 50
- Plant response rating, Wheat [10, 23]: 0
- Plant response rating, Wheat [10, 24]: 30
- Plant response rating, Crabgrass, Large [11, 21]: 80
- Plant response rating, Crabgrass, Large [11, 22]: 90
- Plant response rating, Crabgrass, Large [11, 23]: 50
- Plant response rating, Crabgrass, Large [11, 24]: 100
- Plant response rating, Velvetleaf [12, 21]: 100
- Plant response rating, Velvetleaf [12, 22]: 100
- Plant response rating, Velvetleaf [12, 23]: 70
- Plant response rating, Velvetleaf [12, 24]: 100
